As usually defined, the IC50 is the point on the concentration scale where inhibition reaches its midpoint. The Cmax is the peak of the concentration-time curve. A word on the bioavailability: it is dose-corrected exposure relative to a reference, in per cent. A low value points to little systemic uptake. One may read the Ki as the dissociation constant of the complex between target and ligand, obtained from inhibition or displacement.

In data set [1] the target is T1, Poly [ADP-ribose] polymerase 1 (Homo sapiens, UniProt P09874). The experiment in a line: Inhibition of PARP1 (unknown origin) incubated for 1 hr by chemiluminescence assay.
T1 sequence (P09874 whole entry, canonical isoform): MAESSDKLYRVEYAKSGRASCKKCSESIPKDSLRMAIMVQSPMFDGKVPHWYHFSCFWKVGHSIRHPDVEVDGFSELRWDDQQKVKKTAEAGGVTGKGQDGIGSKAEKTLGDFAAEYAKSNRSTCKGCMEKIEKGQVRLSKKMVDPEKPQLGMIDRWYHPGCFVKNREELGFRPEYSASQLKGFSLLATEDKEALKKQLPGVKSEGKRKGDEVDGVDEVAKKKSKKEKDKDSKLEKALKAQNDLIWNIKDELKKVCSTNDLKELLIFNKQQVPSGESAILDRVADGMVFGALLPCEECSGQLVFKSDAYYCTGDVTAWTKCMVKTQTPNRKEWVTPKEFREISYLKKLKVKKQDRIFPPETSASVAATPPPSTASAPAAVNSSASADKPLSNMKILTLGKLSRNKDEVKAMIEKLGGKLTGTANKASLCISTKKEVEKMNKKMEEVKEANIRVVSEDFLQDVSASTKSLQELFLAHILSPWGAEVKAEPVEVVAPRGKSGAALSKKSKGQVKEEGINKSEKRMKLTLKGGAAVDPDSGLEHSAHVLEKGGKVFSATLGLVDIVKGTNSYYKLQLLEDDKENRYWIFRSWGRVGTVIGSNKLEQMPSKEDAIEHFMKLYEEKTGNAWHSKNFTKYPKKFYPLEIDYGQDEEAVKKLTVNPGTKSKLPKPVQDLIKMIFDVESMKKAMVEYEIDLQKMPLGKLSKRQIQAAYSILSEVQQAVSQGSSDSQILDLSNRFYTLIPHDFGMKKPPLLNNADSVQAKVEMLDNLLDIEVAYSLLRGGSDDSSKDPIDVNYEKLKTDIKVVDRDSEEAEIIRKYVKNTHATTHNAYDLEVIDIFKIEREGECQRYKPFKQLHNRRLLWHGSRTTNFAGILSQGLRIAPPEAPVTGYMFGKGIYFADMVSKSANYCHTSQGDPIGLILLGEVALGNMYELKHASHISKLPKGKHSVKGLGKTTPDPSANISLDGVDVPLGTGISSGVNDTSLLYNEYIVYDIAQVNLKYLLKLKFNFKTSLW
Data set [2] addresses T2, Phosphatidylinositol 4,5-bisphosphate 3-kinase catalytic subunit alpha isoform (Homo sapiens, UniProt P42336). As to the kind of experiment: Inhibition of PI3K-alpha (unknown origin) incubated for 40 mins in presence of ATP by ELISA. For orientation: An ELISA detects its analyte on a solid surface through an enzyme-linked reagent.
Data set [3] relates to HCT-116. As to the kind of experiment: Inhibition of cell proliferation in human HCT-116 cells incubated for 72 hrs by SRB assay. Format: functional, cell-based. Particulars: HCT-116, 72 h. Background: The SRB assay estimates cell density from bound dye.
Another data set relates to HCC1937. As to the kind of experiment: Inhibition of cell proliferation in human HCC1937 cells incubated for 72 hrs by SRB assay. Format: functional, cell-based. Particulars: HCC1937, 72 h.
In another data set the test system is MDA-MB-231. As to the kind of experiment: Inhibition of cell proliferation in human MDA-MB-231 cells incubated for 72 hrs by SRB assay. It is filed as functional, cell-based. Particulars: MDA-MB-231, 72 h.
A further data set relates to LoVo. The experiment in a line: Inhibition of cell growth in human LoVo cells assessed as measuring ATP content incubated for 3 days by Cell Titer Glo assay. Format: functional, cell-based. Particulars: 72 h. (In general: ATP-based viability assays read luminescence as a measure of living cells.)
In data set [4] the target is T3, ATR/ATRIP (Homo sapiens, UniProt Q13535). As to the kind of experiment: Inhibition of full-length human recombinant FLAG-tagged ATR/c-Myc-tagged ATRIP using p53 as substrate incubated for 30 mins in presence of ATP by HTRF assay. It is filed as protein-complex assay.
For data set [5], the target named is Serine/threonine-protein kinase ATR (Homo sapiens, UniProt Q13535). As to the kind of experiment: Inhibition of ATR (unknown origin).
Data set [6] has as its target Serine-protein kinase ATM (Homo sapiens, UniProt Q13315). The experiment in a line: Inhibition of ATM (unknown origin).
The species entered for data set [7] is Homo sapiens. The experiment in a line: Selectivity index, ratio of IC50 for ATM (unknown origin) to IC50 for ATR (unknown origin).
The species entered for data set [8] is Homo sapiens. The experiment in a line: Selectivity index, ratio of IC50 for ATM (unknown origin) to IC50 for PI3K-alpha (unknown origin).
The species entered for data set [9] is Homo sapiens. As to the kind of experiment: Selectivity index, ratio of IC50 for ATM (unknown origin) to IC50 for mTOR (unknown origin).
The target of data set [10] is T2, Phosphatidylinositol 4,5-bisphosphate 3-kinase catalytic subunit alpha isoform. As to the kind of experiment: Inhibition of PI3K-alpha (unknown origin).
Data set [11] deals with Serine/threonine-protein kinase mTOR (Homo sapiens, UniProt P42345). As to the kind of experiment: Inhibition of mTOR (unknown origin).
The next data set has as its system NCI-H1299. The experiment in a line: Inhibition of cell proliferation in human NCI-H1299 cells incubated for 3 days by MTT assay. Particulars: NCI-H1299, 72 h. Format: functional, cell-based.
Data set [12] deals with T3, ATR/ATRIP. The experiment in a line: Inhibition of full-length human recombinant FLAG-tagged ATR/c-Myc-tagged ATRIP using p53 as substrate incubated for 30 mins in presence of ATP by fluorescence based assay. It is filed as protein-complex assay.
The test system of a further data set is DU-145. As to the kind of experiment: Inhibition of cell proliferation in human DU-145 cells incubated for 4 days by MTT assay. Format: functional, cell-based. Particulars: DU-145, 96 h.
In the next data set the test system is NCI-H460. As to the kind of experiment: Inhibition of cell proliferation in human NCI-H460 cells incubated for 4 days by MTT assay. Format: functional, cell-based. Particulars: NCI-H460, 96 h.
The target in data set [13] is T4, DNA-dependent protein kinase catalytic subunit (Homo sapiens, UniProt P78527). The experiment in a line: Inhibition of DNA-PK (unknown origin) incubated for 3 hrs by ADP-Glo kinase assay.
T4 sequence (P78527 whole entry, the tested form may be a part): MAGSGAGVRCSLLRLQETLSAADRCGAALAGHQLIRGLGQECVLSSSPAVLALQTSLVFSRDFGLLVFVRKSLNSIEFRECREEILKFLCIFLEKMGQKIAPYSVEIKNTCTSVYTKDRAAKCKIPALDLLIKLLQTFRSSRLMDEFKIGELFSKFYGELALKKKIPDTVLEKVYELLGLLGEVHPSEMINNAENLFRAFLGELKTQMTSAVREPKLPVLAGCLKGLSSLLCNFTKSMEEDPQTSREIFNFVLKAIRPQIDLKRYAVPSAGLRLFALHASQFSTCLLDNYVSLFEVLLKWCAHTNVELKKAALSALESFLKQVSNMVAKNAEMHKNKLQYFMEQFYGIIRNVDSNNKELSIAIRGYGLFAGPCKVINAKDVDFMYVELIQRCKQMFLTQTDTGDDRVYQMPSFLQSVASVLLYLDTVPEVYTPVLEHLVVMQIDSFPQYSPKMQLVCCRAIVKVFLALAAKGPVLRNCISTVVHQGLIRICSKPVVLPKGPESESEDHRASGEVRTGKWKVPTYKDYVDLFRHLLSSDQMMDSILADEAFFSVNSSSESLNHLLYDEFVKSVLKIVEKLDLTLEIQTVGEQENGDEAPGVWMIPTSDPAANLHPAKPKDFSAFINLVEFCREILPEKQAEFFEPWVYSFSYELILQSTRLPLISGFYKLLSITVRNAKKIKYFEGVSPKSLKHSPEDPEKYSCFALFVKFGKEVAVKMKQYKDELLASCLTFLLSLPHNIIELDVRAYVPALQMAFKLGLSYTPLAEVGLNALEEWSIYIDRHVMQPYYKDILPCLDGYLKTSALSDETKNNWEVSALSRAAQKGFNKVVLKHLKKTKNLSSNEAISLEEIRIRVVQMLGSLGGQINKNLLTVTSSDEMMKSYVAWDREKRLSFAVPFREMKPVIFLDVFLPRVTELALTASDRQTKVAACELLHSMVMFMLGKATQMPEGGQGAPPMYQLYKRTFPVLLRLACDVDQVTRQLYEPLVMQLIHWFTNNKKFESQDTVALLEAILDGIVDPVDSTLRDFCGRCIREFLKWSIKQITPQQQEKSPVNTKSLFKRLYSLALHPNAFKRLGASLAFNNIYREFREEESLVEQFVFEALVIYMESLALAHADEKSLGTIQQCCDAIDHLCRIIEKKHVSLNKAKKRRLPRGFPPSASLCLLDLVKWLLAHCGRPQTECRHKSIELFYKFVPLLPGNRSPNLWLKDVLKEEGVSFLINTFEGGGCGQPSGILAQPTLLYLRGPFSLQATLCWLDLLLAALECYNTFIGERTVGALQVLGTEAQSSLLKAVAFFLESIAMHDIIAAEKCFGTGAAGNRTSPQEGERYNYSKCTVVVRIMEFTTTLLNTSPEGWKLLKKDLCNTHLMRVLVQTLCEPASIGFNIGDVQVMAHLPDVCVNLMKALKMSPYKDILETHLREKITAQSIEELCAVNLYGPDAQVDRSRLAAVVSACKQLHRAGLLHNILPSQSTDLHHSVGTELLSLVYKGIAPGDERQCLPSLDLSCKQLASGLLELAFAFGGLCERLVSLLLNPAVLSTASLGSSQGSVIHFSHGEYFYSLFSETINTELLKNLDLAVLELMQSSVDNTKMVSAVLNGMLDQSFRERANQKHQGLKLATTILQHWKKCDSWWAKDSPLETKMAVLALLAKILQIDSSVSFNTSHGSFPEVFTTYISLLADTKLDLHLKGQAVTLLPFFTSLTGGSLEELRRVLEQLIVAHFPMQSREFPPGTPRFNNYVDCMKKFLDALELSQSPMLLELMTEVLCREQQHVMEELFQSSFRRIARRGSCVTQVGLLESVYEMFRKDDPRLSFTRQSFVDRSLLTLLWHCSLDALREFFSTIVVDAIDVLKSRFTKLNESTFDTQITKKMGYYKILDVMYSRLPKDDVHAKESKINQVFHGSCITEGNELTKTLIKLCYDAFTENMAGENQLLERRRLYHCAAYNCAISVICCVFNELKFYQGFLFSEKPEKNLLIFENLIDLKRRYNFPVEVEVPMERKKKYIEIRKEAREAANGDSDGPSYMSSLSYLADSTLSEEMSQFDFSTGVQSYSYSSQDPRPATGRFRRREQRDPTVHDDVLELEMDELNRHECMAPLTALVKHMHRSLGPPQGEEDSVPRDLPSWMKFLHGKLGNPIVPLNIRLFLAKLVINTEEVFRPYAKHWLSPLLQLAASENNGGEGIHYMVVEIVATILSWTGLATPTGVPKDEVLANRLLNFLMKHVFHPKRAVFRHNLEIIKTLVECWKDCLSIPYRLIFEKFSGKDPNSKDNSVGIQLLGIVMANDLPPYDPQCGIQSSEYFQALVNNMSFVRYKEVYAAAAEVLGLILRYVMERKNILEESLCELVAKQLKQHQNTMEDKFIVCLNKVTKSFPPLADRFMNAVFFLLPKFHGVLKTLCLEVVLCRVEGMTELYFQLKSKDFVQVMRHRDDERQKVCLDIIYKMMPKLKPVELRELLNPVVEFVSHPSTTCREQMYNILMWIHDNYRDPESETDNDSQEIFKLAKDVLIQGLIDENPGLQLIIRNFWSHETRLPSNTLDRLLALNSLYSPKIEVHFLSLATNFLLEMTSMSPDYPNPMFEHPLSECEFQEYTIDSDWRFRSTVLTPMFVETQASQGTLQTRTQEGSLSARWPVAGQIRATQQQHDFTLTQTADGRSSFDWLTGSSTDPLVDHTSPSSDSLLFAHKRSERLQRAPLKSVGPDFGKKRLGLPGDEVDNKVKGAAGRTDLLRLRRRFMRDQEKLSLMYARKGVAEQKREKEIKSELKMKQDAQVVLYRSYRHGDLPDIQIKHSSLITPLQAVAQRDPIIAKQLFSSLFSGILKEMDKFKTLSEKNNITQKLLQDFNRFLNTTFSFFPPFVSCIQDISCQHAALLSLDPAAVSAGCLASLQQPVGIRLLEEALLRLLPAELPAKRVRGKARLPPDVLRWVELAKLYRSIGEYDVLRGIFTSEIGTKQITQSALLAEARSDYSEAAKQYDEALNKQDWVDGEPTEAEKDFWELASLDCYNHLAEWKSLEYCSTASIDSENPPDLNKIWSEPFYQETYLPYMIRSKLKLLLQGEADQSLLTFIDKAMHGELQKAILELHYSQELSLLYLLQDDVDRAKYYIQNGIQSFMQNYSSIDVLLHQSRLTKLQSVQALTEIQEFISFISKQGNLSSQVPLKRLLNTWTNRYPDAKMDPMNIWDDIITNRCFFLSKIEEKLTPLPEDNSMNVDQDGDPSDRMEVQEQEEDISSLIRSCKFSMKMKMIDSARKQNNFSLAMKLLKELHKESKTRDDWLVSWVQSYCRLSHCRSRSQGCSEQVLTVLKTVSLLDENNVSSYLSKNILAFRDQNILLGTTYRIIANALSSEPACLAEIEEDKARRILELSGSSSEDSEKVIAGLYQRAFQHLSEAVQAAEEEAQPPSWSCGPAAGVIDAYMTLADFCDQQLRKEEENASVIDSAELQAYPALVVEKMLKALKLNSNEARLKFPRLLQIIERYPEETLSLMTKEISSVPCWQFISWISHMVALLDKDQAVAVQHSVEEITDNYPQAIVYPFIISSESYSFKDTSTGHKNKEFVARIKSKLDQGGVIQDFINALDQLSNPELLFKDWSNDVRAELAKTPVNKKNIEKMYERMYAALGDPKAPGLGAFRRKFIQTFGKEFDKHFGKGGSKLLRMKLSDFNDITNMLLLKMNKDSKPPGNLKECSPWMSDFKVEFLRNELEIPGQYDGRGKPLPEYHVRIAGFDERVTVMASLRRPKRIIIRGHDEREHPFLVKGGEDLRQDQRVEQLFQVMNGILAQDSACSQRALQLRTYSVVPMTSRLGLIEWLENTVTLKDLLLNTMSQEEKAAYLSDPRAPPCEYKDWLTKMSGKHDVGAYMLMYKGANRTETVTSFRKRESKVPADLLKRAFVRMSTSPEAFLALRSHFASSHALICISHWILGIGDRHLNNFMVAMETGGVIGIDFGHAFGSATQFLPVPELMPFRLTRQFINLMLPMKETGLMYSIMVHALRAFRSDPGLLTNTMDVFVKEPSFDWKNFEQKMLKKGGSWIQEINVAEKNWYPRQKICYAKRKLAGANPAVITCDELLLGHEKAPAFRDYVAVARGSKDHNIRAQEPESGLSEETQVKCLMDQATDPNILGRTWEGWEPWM
Data set [14] has as its target T1, Poly [ADP-ribose] polymerase 1. The experiment in a line: Inhibition of N-terminal GST-tagged recombinant human PARP1 (2 to 1014 residues) expressed in Sf9 insect cells incubated for 1 hr by colorimetric assay.
Data set [15] in a line: Cmax in BALB/c mouse at 2 mg/kg, po by LC-MS/MS analysis. Format: ADME, organism-based. Also noted: dose 2 mg/kg, route po. Particulars: in vivo.
Data set [16] can be described thus: Oral bioavailability in BALB/c mouse at 2 mg/kg by LC-MS/MS analysis. Particulars: in vivo. It is filed as ADME, organism-based.
Data set [17] addresses T4, DNA-dependent protein kinase catalytic subunit. The experiment in a line: Inhibition of DNA-PK (unknown origin) assessed as inhibition constant using Glu-Pro-Pro-Leu-Ser-Gln-Glu-Ala-Phe-Ala-Asp-Leu-Trp-Lys-Lys-Lys peptide as substrate incubated for 45 mins in presence of [33P]-ATP by scintillation counting method.
The target in data set [18] is T3, ATR/ATRIP. The experiment in a line: Inhibition of full-length recombinant human ATR/ATRIP using p53 as substrate incubated for 30 mins in presence of ATP by HTRF assay. It is filed as protein-complex assay.
Data set [19] relates to HCT-116. As to the kind of experiment: Inhibition of cell proliferation in human HCT-116 incubated for 48 hrs by Cell Titer Glo assay. Format: functional, cell-based. Particulars: HCT-116, 48 h.
Another data set concerns NCI-H23. As to the kind of experiment: Inhibition of cell proliferation in human NCI-H23 incubated for 48 hrs by Cell Titer Glo assay. It is filed as functional, cell-based. Particulars: NCI-H23, 48 h.
Data set [20] addresses T1, Poly [ADP-ribose] polymerase 1. The experiment in a line: Inhibition of PARP1 (unknown origin) by ELISA.
A further data set deals with Wee1-like protein kinase (Homo sapiens, UniProt P30291). The experiment in a line: Displacement of tracer 178 from WEE1 (unknown origin) incubated for 1 hr by Lantha Screen assay.

For `NC(=O)c1cccc2cc(C(=O)N3CCN(c4nc(-c5cnc(N)nc5)nc(N5CCOCC5)n4)CC3)oc12`, the 50% inhibitory concentration (IC50) in data set [1] was 6.3 nM; in [2], 5.8 nM; with HCT-116 [3], 94 nM; in the data set with HCC1937, 61 nM; with MDA-MB-231, 4120 nM.

Take `C[C@@H]1COCCN1c1nc(-c2c(N)ncc3[nH]ccc23)nc2c1OC1CC2(S(C)(=O)=O)C1`: the half-maximal inhibitory concentration (IC50) turned out to be 1.36 nM in the data set with LoVo and 62.1 nM on ATR/ATRIP [4].

Take `CC(C)n1c(=O)n(C)c2cnc3ccc(-c4ccc(OCCCN(C)C)nc4)cc3c21`: the IC50 was over 30000 nM in data set [5], 3.98 nM in [6], over 10000 nM in [10] and over 10000 nM in data set [11]. Besides, the Ratio IC50 in the data set listed under Homo sapiens [7], in the data set listed under Homo sapiens [8] and in the data set listed under Homo sapiens [9] was over 1000 in each case.

Consider `Nc1ncc(-c2nc(N3CCOCC3)nc(N3CCN(C(=O)c4cc(Cc5n[nH]c(=O)c6ccccc56)ccc4F)CC3)n2)cn1`, for which the IC50 in [1] turned out to be 0.78 nM; in [2], 94 nM; in the data set with HCT-116 [3], 1050 nM; with HCC1937 it was 426 nM; in the data set with MDA-MB-231 it was 1190 nM.

Turning to `C=CCn1c(=O)c2cnc(Nc3ccc(N4CCN(C)CC4)cc3)nc2n1-c1cccc(C(C)(C)O)n1` [ADAVOSERTIB], 284 nM corresponded to half-maximal inhibition with NCI-H1299 (IC50).

As for `C[C@@H]1COCCN1c1cc(-c2ccnn2C)c2ncc(-c3ccn[nH]3)n2n1`, the IC50 on ATR/ATRIP [12] was determined as 938 nM; in the data set on DU-145, 1220 nM; in the data set with NCI-H460, 907 nM.

Take `Nc1ncc(-c2nc3c(c(N4CCOCC4)n2)CCN(C(=O)c2cc(Cc4n[nH]c(=O)c5ccccc45)ccc2F)C3)cn1`: the half-inhibitory concentration (IC50) with HCT-116 [3] stood at 211 nM; with HCC1937, 81 nM; with MDA-MB-231 it was 443 nM.

Regarding `Cc1ncc(-c2cc(NC[C@@H](C)c3cccc4c(-c5noc(=O)[nH]5)ccnc34)ncn2)cn1`, in [13], the IC50 is 39 nM.

As for `NC(=O)c1cccc2cn(-c3ccc([C@@]4(F)CCCNC4)cc3)nc12`, the IC50 in data set [14] was under 100 nM.

Turning to `Cc1cc2ncnn2cc1Nc1ncc2c(n1)C1(CCC3(CC3)CC1)C(=O)N2C`, the highest level in [15] (Cmax) was 2170 nM. Also, the bioavailability in [16] turned out to be 83%.

In the case of `C[C@@H]1CN(c2cc(O[C@H]3CC[C@@H](Nc4ncccn4)CC3)c3nccnc3c2)CCO1`, the inhibition constant Ki in data set [17] is under 100 nM.

For the compound `O=c1[nH]c(N[C@H]2CC[C@@H](Oc3cc(N4CCOCC4)cc4nccnc34)CC2)ncc1F`, the inhibition constant Ki in [17] is under 100 nM.

Take `CNc1nc2ccc(F)cc2n1-c1nc(-c2ccnn2C)cc(N2CCOC[C@H]2C)n1`: the values for the IC50 at ATR/ATRIP [18], in the data set with HCT-116 [19] and with NCI-H23 were under 500 nM, under 10000 nM and under 10000 nM, respectively.

Regarding `Cc1ncc(-c2cc(NC[C@H](C)c3cccc4c(C5=NCCN5)ccnc34)ncn2)cn1`, the IC50 in data set [13] came to 122 nM.

On to `CC(C)(C)CC(=O)C(=O)N1CCN(C(=O)c2cc(Cc3n[nH]c(=O)c4c3CCCC4)ccc2F)CC1`, for which, in data set [20], the IC50 was under 200 nM.

Compound `CN1CCN(c2ccc(Nc3cc4c(cn3)C(=O)N(c3ccccc3Cl)C3=NCCN34)cc2)CC1` gave a half-maximal inhibitory concentration (IC50) in the data set with NCI-H1299 of 154 nM.

Take `Nc1cc(C(F)(F)F)c(-c2nc3c(c(N4CCOCC4)n2)CCN(C(=O)c2cc(Cc4n[nH]c(=O)c5ccccc45)ccc2F)C3)cn1`: the IC50 stood at 775 nM with HCT-116 [3], 504 nM in the data set with HCC1937 and 155 nM with MDA-MB-231.

On to `Nc1cc(C(F)(F)F)c(-c2nc(N3CCOCC3)nc(N3CCN(C(=O)c4cc(Cc5n[nH]c(=O)c6ccccc56)ccc4F)CC3)n2)cn1`, for which the concentration for half-maximal inhibition (IC50) is 81.7 nM in data set [2], 342 nM in the data set on HCT-116 [3], 264 nM in the data set with HCC1937 and 3290 nM in the data set on MDA-MB-231.

Take `C=CCn1c(=O)c2cnc(Nc3ccc4c(c3)OC[C@@H]3CN(C)CCN43)nc2n1-c1ccc(C(C)(C)O)cn1`: the IC50 at Wee1-like protein kinase amounted to 2.49 nM.
